Data published in patent US6271254A, “Pharmaceutical compositions containing R-α-lipoic acid or S-α-lipoic acid as active ingredient” (ASTA Pharma Aktiengesellschaft, priority 1989, dated 2001).

How the values were obtained:
rat [1] = experiment: Randall-Selitto inflammatory pain test in the rat; format: in vivo; settings: po, per os; for ED50: 0.5 h, Randall-Selitto test, rat, 50% analgesic activity, read-out: analgesically effective ED50
Experimental: Randall-Selitto test (inflammatory pain in the rat)
By analogy with the method according to RANDALL and SELITTO (L. O. Randall and J. Selitto, Arch. int. Pharmacodyn. Vol. 111, pages 409-418 (1957)), rats receive subplantar injections of 0.1 ml of a 20% (in demineralized water) brewer's yeast suspension into the right back paw. 2 1/2 hours thereafter the test substances are administered and 30 minutes thereafter the pain threshold (in grams) is measured as pain in the inflamed paw, using a commercially available algesia meter. The criterion is the defense reaction shown by the animals in pulling the paw away and/or freeing themselves from the research worker's grip. The activity of the substance is measured in the form of the increase in the pain threshold as compared to an untreated control group. The course of the experiment differs from that in the original method in that the substances are only given 21/2 hours after provocation of the edema and not simultaneously therewith. In so doing the intention is to prevent the development of the edema being inhibited by a possible anti-inflammatory activity and masking or feigning analgesia.
The ED50 is determined using the linear regression method. The ED50 here is the dose in mg/kg it which mathematically there is a 50% analgesic activity.

[2] = acute toxicity in the mouse (method of LITCHFIELD and WILCOXON); settings: in vivo, oral administration
Experimental: The acute toxicity of R-α-lipoic acid and S-α-lipoic acid in the mouse (expressed as the LD50 mg/kg; method of LITCHFIELD and WILCOXON, J. Pharmacol. Exp Ther. 95, 99 (1949)), is for example in excess of 100 mg/kg in the case of oral administration.

mouse = experiment: acid writhing pain test in the mouse (acetic acid test); format: in vivo; settings: po, per os, 50% inhibition of writhing syndrome, read-out: analgesically active ED50
Excerpt: Acetic acid test (writhing test) in the mouse Method: In the acetic acid test after KOSTER et al. (Fed. Proc., Vol. 18, page 412 (1959)) the pain stimulus triggered by an intraperitoneal injection of 1% acetic acid. The pain reaction is expressed in the form of the characteristic stretching of the animals ("writhing syndrome") which continues at irregular time intervals form some time after injection of the acetic acid. The dose-dependent inhibition of the frequency of the stretching movement as compared to an untreated control group is expressed in percent as analgesic activity. Evaluation is by determination type the ED50 (Method of linear regression). The ED50 is the dose in mg/kg at which there is a 50% inhibition of the "writhing syndrome".

[3] = analgesic, anti-inflammatory, anti-arthrotic and cytoprotective activity in investigatory models; format: in vivo, mouse, rat, chicken; settings: in words
Excerpt: The optical isomers of α-lipoic acid display a good analgesic, anti-inflammatory, anti-arthrotic and cytoprotective activity in, for example, the following investigatory models:
MgSO4 writhing test in the mouse according to GYIRES et al. (Arch.int.pharmacodyn.therap. 267, 131-140 (1984))
Adjuvans arthritis in the rat according to NEWBOULD (Brit.J.Pharmacol. 21, 127-136 (1963))
TPA- or arachidonic acid-induced mouse ear oedema according to YOUNG et al. (J.Invest.Dermatol. 80, 48-52 (1983))
Na-mono-iodazetate-induced arthrosis in rats or chickens according to KALBHEN in: Arthrosis deformans, Eular-Verlag, Basel/Switzerland, 1982
TPA-induced arthrosis in rats according to WEISCHER (Agents and Actions 23, 1/2 (1988))
Intestinal ulcerations in rats according to DEL SOLDATO (Agents and Actions 16, 393-396 (1985))
Colitis-model in the rat according to WEISCHER at al (Agents and Actions, vol. 26, 1/2, page 222 to 223, (1989))
Ethanol-ulcer model in the rat (determination for example of a cytoprotective activity).

[4] = tested on: human immunodeficiency virus HIV (HIV-1, HIV-2); experiment: growth-inhibiting activity against retroviruses, in particular HIV (HIV-1, HIV-2); format: cell-based; settings: in vitro; in words
Excerpt: 3. Determination of reverse transcriptase in culture supernatant
4. Determination of p24 antigen in culture supernatant
In the case of the in vitro experiments the active ingredient is used, for example in benzyl alcohol as solvent.
The following substrates may, for example, be used for the in vitro investigations of the replication behavior of retroviruses, in particular HIV:
1. Virus-containing RPMI 1640 medium, for example 1X liquid 041-01875 (synthetic culture medium from Gibeo according to Moore, Gerner and Franklin, H. A. (1967), J.A.M.A. 199; 519) in a concentration of 2×10^3 -1×10^4 infectious units (PFU)/ml
2. The cell lines Jurkat Clone E6-1, Sup T1 and HeLa CT4.

rat [5] = experiment: carragheen-induced oedema test in the rat; format: in vivo; settings: for ED50: 50% inhibition of paw oedema, read-out: anti-inflammatorily active ED50
Experimental: Caragheen-induced edema test for anti-inflammatory activity:
The investigation is conducted in carragheen-induced edema of the rat paw after the method of MOERSDORF and co-workers (Arch.int.Pharmacodyn. 192, 111-127 (1971)). The anti-inflammatory activity is, for example, given as inhibition of edema in percent as compared to the untreated control group. Application is oral or intraperitoneal in all experiments. The substance is administered orally or intraperitoneally 1 hour after triggering the inflammation. The ED50 is the dose in mg/kg at which there is 50% inhibition of the paw oedema.

[6] = analgesic and anti-inflammatory activity compared with the racemate (general statement, no test named); format: in vivo; settings: vs racemate
[7] = po, carragheen-induced oedema, rat, per os

O=C(O)CCCC[C@H]1CCSS1 [S-α-lipoic acid]
minimal effective dose (rat [1]; Rattus norvegicus, Randall-Selitto pain test, read-out: minimum analgesically effective dose): 1 mg/kg
ED50 (rat [1]): 7.5 mg/kg
LD50 [2]: > 100 mg/kg
ED50 (mouse): 10.2 mg/kg
anti-inflammatory and cytoprotective activity (beside analgesic main activity) [3]: to a lesser extent
growth-inhibiting activity against retroviruses, in particular HIV (HIV-1, HIV-2) [4]: growth-inhibiting activity

O=C(O)CCCCC1CCSS1 (racemic) [racemate, 1,2-dithiacyclopentane-3-valeric acid, reference compound]
ED50 (rat [1]): 45.9 mg/kg
ED50 (mouse): 51.3 mg/kg
ED50 (rat [5]; [7]): 49.7 mg/kg

O=C(O)CCCC[C@@H]1CCSS1 [R-α-lipoic acid]
LD50 [2]: > 100 mg/kg
anti-inflammatory activity stronger than that of the racemate (factor) [6]: 10 factor
minimal effective dose (rat [5]; Rattus norvegicus, po, carragheen-induced oedema test, per os, read-out: minimum anti-inflammatorily effective dose): 1 mg/kg
anti-inflammatory activity superior to that of racemic α-lipoic acid (factor) (rat [5]; carragheen-induced oedema, rat, peroral application): ≥ 10 factor
ED50 (rat [5]; [7]): 4.9 mg/kg
antinociceptive and cytoprotective activity (beside anti-inflammatory and anti-arthritic main activity) [3]: to a lesser extent
growth-inhibiting activity against retroviruses, in particular HIV (HIV-1, HIV-2) [4]: growth-inhibiting activity
